Test results as given in PMC10281575, “PfCRT mutations conferring piperaquine resistance in falciparum malaria shape the kinetics of quinoline drug binding and transport” (PLOS Pathogens, 2023).
“And” between values parts separate entries of the source, which are not always exact repeats. Identical values can stand only once.

Key:
PfCRT^Dd2_F145I = target: T1, PfCRT^Dd2_F145I (Plasmodium falciparum, UniProt Q8IBZ9, A220S/F145I/I356T/K76T/M74I/N326S/N75E/Q271E/R371I); experiment: Radiolabeled drug uptake in X. laevis oocytes expressing PfCRT^Dd2_F145I; type: cell-based
T1 construct: expressed in transfected cells; host or cells: Xenopus laevis oocytes injected with in vitro transcribed RNA (pSP64T)
T1 sequence (Q8IBZ9 1-424 M74I/N75E/K76T/F145I/A220S/Q271E/N326S/I356T/R371I): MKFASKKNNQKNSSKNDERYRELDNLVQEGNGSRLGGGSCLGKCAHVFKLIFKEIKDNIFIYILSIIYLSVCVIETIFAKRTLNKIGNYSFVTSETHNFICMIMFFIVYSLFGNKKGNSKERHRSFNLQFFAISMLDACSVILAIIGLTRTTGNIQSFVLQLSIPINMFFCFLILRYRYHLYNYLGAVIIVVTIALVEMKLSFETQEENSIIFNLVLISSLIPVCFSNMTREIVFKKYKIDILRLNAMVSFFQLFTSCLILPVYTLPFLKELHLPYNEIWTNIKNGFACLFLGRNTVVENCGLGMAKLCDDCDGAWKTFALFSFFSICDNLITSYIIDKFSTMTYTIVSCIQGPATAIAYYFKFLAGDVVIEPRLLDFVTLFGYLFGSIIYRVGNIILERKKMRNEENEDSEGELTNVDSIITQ
From the text: The two kinetic parameters were derived by fitting the Michaelis-Menten equation to the kinetic data (Table 1).
A codon-optimized coding sequence of the Dd2 isoform of PfCRT (PfCRT^Dd2) was subcloned into the pSP64T expression vector [21]. To generate the necessary mutations to introduce the amino acid substitutions H97Y, F145I, M343L or G353V into the pfcrt sequence, the overlap extension method was used. A region from the 5’-untranslated Xenopus β-globin sequence to the respective 3’ region, containing the full length pfcrt coding sequence, was amplified using the following primer pairs: for the H97Y mutation, numbers 1/4 and 2/3; for the F145I mutation, numbers 1/6 and 2/5; for the M343L mutation, numbers 1/8 and 2/7; and for the G353V mutation, numbers 1/10 and 2/9 (for primers, see S2 Table). Both PCR products were used as template for amplification of the final product using primers number 1/2. The resulting fragment was cloned into the pSP64T expression vector, and the presence of the desired mutation was confirmed by sequencing.
(§1) Adult female X. laevis frogs (purchased from NASCO) were anesthetized by submersion in a solution of 0.3% (w/v) 3-amino benzoate methanesulfonate for 15 min. Sections of the ovary were surgically removed and placed in Ca^2+-free ND96 buffer supplemented with 0.1% collagenase D (w/v; Roche), 0.5% BSA (w/v) and 9 mM Na2HPO4 at 18°C for 14–16 h while gently shaking. The oocytes were then washed several times with ND96 buffer (5 mM HEPES, pH 7.5, 96 mM NaCl, 2 mM KCl, 1.8 mM CaCl2, 1 mM MgCl2), supplemented with […] gentamycin. Healthy-looking stage V-VI oocytes were manually selected and randomly grouped for injection. A codon-optimized coding sequence of PfCRT was subcloned into the pSP64T expression vector and subsequently linearized using the restriction endonuclease BamHI or SalI (New England Biolabs GmbH). RNA for injection was transcribed in vitro using the mMESSAGE mMACHINE SP6 Transcription kit (Ambion), diluted with nuclease-free water to a final concentration of 0.6 μg/μL and stored at -80°C. RNA was injected using precision-bore glass capillary tubes (3.5-inch glass capillaries; Drummond Scientific Co.), which were pulled on a vertical puller (P-87 Flaming/Brown micropipette puller, Sutter Instrument Co.) and graduated. The micropipettes were connected to a microinjector (Nanoject II Auto-Nanoliter Injector, Drummond Scientific Co.). Injection was conducted under stereomicroscopic control. 50 nL of nuclease-free water alone (control oocytes) or 50 nL of nuclease-free water containing 30 ng of RNA was injected per oocyte. Injected oocytes were kept for 72 h at 18°C in ND96 buffer with two daily buffer changes before being used for further experiments.
(§2) Drug transport assays were performed as previously described. Briefly, measurements of radiolabeled drug uptake were made over 1 h, unless otherwise specified. […] Where specified, one or more unlabeled drugs were also present at the indicated concentrations. […] The uptake assays were terminated by removing the oocytes from the reaction medium and washing them three times with 2 mL of ice-cold ND96 buffer. Each oocyte was transferred to a separate scintillation vial and lysed by the addition of 200 μL of a 5% SDS solution. The radioactivity in the sample was measured using a liquid scintillation analyser Tri-Carb 4910 TR (PerkinElmer). Water-injected oocytes were analyzed in parallel as a negative control. The buffer from each condition was measured in duplicate in parallel to each experiment to transform counts per minute into pmol of drug. Drug uptake attributable to PfCRT was determined by subtracting the background uptake from water-injected oocytes from that of PfCRT-expressing oocytes.

water-injected oocytes = experiment: Radiolabeled drug uptake in water-injected control oocytes (intrinsic drug accumulation); type: cell-based, Xenopus laevis; conditions: 50 μM CQ, pH 6.0; one value per biological replicate
Description: as §1
as §2, with “oocytes. In all cases, at least three independent experiments were performed on oocytes from different frogs, and for each condition in an experiment, measurements were made from 10 oocytes per treatment.” for “oocytes.”

[1] = 50 μM CQ, pH 6.0, total uptake, one value per biological replicate
[2] = 50 μM CQ, pH 6.0, water-injected uptake subtracted, per replicate
[3] = 60 min, pH 6, per biological replicate

In the case of `CCN(CC)CCCC(C)Nc1ccnc2cc(Cl)ccc12` (stereo not shown) [CQ, chloroquine], the “PfCRTDd2_F145I-mediated CQ uptake at 10 µM CQ” value (PfCRT^Dd2_F145I; 10 µM CQ, single replicates) is reported as 1.05 pmol oocyte-1 h-1 and 0.76 pmol oocyte-1 h-1 and 0.87 pmol oocyte-1 h-1, the “PfCRTDd2_F145I uptake of CQ at 10 min” value (PfCRT^Dd2_F145I; [1]) is reported as 5.03 pmol oocyte-1 and 4.98 pmol oocyte-1 and 4.51 pmol oocyte-1 and 3.10 pmol oocyte-1 and 1.40 pmol oocyte-1 and the “PfCRTDd2_F145I uptake of CQ at 30 min” value (PfCRT^Dd2_F145I; [1]) is reported as 5.64 pmol oocyte-1 and 11.05 pmol oocyte-1 and 6.90 pmol oocyte-1 and 4.67 pmol oocyte-1 and 6.95 pmol oocyte-1. For the same molecule, the “PfCRTDd2_F145I uptake of CQ at 60 min” value (PfCRT^Dd2_F145I; [1]) was 18.17 pmol oocyte-1 and 7.02 pmol oocyte-1 and 13.61 pmol oocyte-1, the “PfCRTDd2_F145I uptake of CQ at 90 min” value (PfCRT^Dd2_F145I; [1]) was 12.38 pmol oocyte-1 and 19.74 pmol oocyte-1 and 12.45 pmol oocyte-1 and 15.73 pmol oocyte-1 and the “PfCRTDd2_F145I uptake of CQ at 120 min” value (PfCRT^Dd2_F145I; [1]) was 27.64 pmol oocyte-1 and 15.50 pmol oocyte-1 and 17.12 pmol oocyte-1 and 17.11 pmol oocyte-1. The “PfCRTDd2_F145I uptake of CQ at 180 min” value (PfCRT^Dd2_F145I; [1]) was 16.65 pmol oocyte-1 and 27.26 pmol oocyte-1 and 23.91 pmol oocyte-1 and 24.65 pmol oocyte-1 and 18.05 pmol oocyte-1, the “PfCRTDd2_F145I-mediated CQ uptake at 10 min” value (PfCRT^Dd2_F145I; [2]) was 0.94 pmol oocyte-1 and 1.01 pmol oocyte-1 and 0.80 pmol oocyte-1 and 2.16 pmol oocyte-1 and 0.92 pmol oocyte-1 and the “PfCRTDd2_F145I-mediated CQ uptake at 30 min” value (PfCRT^Dd2_F145I; [2]) was 0.42 pmol oocyte-1 and 1.71 pmol oocyte-1 and 1.49 pmol oocyte-1 and 3.31 pmol oocyte-1 and 2.06 pmol oocyte-1. For the same molecule, the “PfCRTDd2_F145I-mediated CQ uptake at 60 min” value (PfCRT^Dd2_F145I; [2]) was 3.80 pmol oocyte-1 and 4.28 pmol oocyte-1 and 2.84 pmol oocyte-1, the “PfCRTDd2_F145I-mediated CQ uptake at 90 min” value (PfCRT^Dd2_F145I; [2]) was 3.78 pmol oocyte-1 and 4.21 pmol oocyte-1 and 3.32 pmol oocyte-1 and 5.64 pmol oocyte-1 and the “PfCRTDd2_F145I-mediated CQ uptake at 120 min” value (PfCRT^Dd2_F145I; [2]) was 7.06 pmol oocyte-1 and 4.10 pmol oocyte-1 and 3.52 pmol oocyte-1 and 3.59 pmol oocyte-1. For the same molecule, the “PfCRTDd2_F145I-mediated CQ uptake at 180 min” value (PfCRT^Dd2_F145I; [2]) was 3.40 pmol oocyte-1 and 6.55 pmol oocyte-1 and 4.77 pmol oocyte-1 and 7.29 pmol oocyte-1 and 3.73 pmol oocyte-1, the “PfCRTDd2_F145I-mediated CQ uptake at 50 µM CQ” value (PfCRT^Dd2_F145I; 50 µM CQ, single replicates) was 3.80 pmol oocyte-1 h-1 and 4.28 pmol oocyte-1 h-1 and 2.84 pmol oocyte-1 h-1 and the “PfCRTDd2_F145I-mediated CQ uptake at 100 µM CQ” value (PfCRT^Dd2_F145I; 100 µM CQ, single replicates) was 7.23 pmol oocyte-1 h-1 and 7.33 pmol oocyte-1 h-1 and 8.14 pmol oocyte-1 h-1. For the same molecule, the “PfCRTDd2_F145I-mediated CQ uptake at 200 µM CQ” value (PfCRT^Dd2_F145I; 200 µM CQ, single replicates) was 12.53 pmol oocyte-1 h-1 and 11.12 pmol oocyte-1 h-1 and 14.18 pmol oocyte-1 h-1, the “PfCRTDd2_F145I-mediated CQ uptake at 300 µM CQ” value (PfCRT^Dd2_F145I; 300 µM CQ, single replicates) was 13.73 pmol oocyte-1 h-1 and 16.27 pmol oocyte-1 h-1 and 18.53 pmol oocyte-1 h-1 and the “PfCRTDd2_F145I-mediated CQ uptake at 400 µM CQ” value (PfCRT^Dd2_F145I; 400 µM CQ, single replicates) was 14.23 pmol oocyte-1 h-1 and 18.19 pmol oocyte-1 h-1 and 22.31 pmol oocyte-1 h-1. For the same molecule, the “PfCRTDd2_F145I-mediated CQ uptake at 500 µM CQ” value (PfCRT^Dd2_F145I; 500 µM CQ, single replicates) was 19.16 pmol oocyte-1 h-1 and 17.39 pmol oocyte-1 h-1 and 23.99 pmol oocyte-1 h-1, the “PfCRTDd2_F145I-mediated CQ uptake at 10 µM CQ” value (PfCRT^Dd2_F145I; [3]) was 1.05 pmol oocyte-1 h-1 and 0.76 pmol oocyte-1 h-1 and 0.87 pmol oocyte-1 h-1 and the “PfCRTDd2_F145I-mediated CQ uptake at 50 µM CQ” value (PfCRT^Dd2_F145I; [3]) was 2.84 pmol oocyte-1 h-1 and 3.80 pmol oocyte-1 h-1 and 4.28 pmol oocyte-1 h-1. The “PfCRTDd2_F145I-mediated CQ uptake at 100 µM CQ” value (PfCRT^Dd2_F145I; [3]) was 7.23 pmol oocyte-1 h-1 and 7.33 pmol oocyte-1 h-1 and 8.14 pmol oocyte-1 h-1, the “PfCRTDd2_F145I-mediated CQ uptake at 200 µM CQ” value (PfCRT^Dd2_F145I; [3]) was 12.53 pmol oocyte-1 h-1 and 11.12 pmol oocyte-1 h-1 and 14.18 pmol oocyte-1 h-1 and the “PfCRTDd2_F145I-mediated CQ uptake at 300 µM CQ” value (PfCRT^Dd2_F145I; [3]) was 13.73 pmol oocyte-1 h-1 and 16.27 pmol oocyte-1 h-1 and 18.53 pmol oocyte-1 h-1. For the same molecule, the “PfCRTDd2_F145I-mediated CQ uptake at 400 µM CQ” value (PfCRT^Dd2_F145I; [3]) was 14.23 pmol oocyte-1 h-1 and 18.19 pmol oocyte-1 h-1 and 22.31 pmol oocyte-1 h-1, the “PfCRTDd2_F145I-mediated CQ uptake at 500 µM CQ” value (PfCRT^Dd2_F145I; [3]) was 19.16 pmol oocyte-1 h-1 and 17.39 pmol oocyte-1 h-1 and 23.99 pmol oocyte-1 h-1 and the “Vmax, maximal velocity of drug transport” value (PfCRT^Dd2_F145I; Michaelis-Menten fit, 10-500 μM drug, 60 min, pH 6) was 35 ± 2 pmol oocyte^-1 h^-1. For the same molecule, the “increase of KM by the F145I substitution” value (PfCRT^Dd2_F145I; versus PfCRT^Dd2) was 44%, the “water-injected uptake of CQ at 10 min” value (water-injected oocytes) was 3.00 pmol oocyte-1 and 2.99 pmol oocyte-1 and 4.09 pmol oocyte-1 and 3.71 pmol oocyte-1 and 0.95 pmol oocyte-1 and 4.05 pmol oocyte-1 and 0.39 pmol oocyte-1 and 2.80 pmol oocyte-1 and 2.76 pmol oocyte-1 and the “water-injected uptake of CQ at 30 min” value (water-injected oocytes) was 5.48 pmol oocyte-1 and 5.44 pmol oocyte-1 and 5.22 pmol oocyte-1 and 9.34 pmol oocyte-1 and 5.41 pmol oocyte-1 and 1.36 pmol oocyte-1 and 4.88 pmol oocyte-1 and 5.49 pmol oocyte-1 and 4.65 pmol oocyte-1. The “water-injected uptake of CQ at 60 min” value (water-injected oocytes) was 10.84 pmol oocyte-1 and 8.71 pmol oocyte-1 and 14.37 pmol oocyte-1 and 7.57 pmol oocyte-1 and 2.74 pmol oocyte-1 and 9.73 pmol oocyte-1 and 10.77 pmol oocyte-1 and 12.13 pmol oocyte-1 and 9.43 pmol oocyte-1, the “water-injected uptake of CQ at 90 min” value (water-injected oocytes) was 10.67 pmol oocyte-1 and 8.60 pmol oocyte-1 and 15.53 pmol oocyte-1 and 9.13 pmol oocyte-1 and 10.08 pmol oocyte-1 and 13.10 pmol oocyte-1 and 8.74 pmol oocyte-1 and the “water-injected uptake of CQ at 120 min” value (water-injected oocytes) was 15.57 pmol oocyte-1 and 11.64 pmol oocyte-1 and 20.59 pmol oocyte-1 and 11.40 pmol oocyte-1 and 13.60 pmol oocyte-1 and 13.51 pmol oocyte-1 and 14.13 pmol oocyte-1 and 14.32 pmol oocyte-1. The “water-injected uptake of CQ at 180 min” value (water-injected oocytes) was 15.62 pmol oocyte-1 and 20.71 pmol oocyte-1 and 19.14 pmol oocyte-1 and 17.36 pmol oocyte-1 and 14.82 pmol oocyte-1 and 15.40 pmol oocyte-1 and 19.29 pmol oocyte-1.
